Data: ChEMBL document CHEMBL5543061, “Recent advances of antitumor leading compound Erianin: Mechanisms of action and structural modification” (Eur J Med Chem, 2023)
pIC50: −log10 of the molar value.

Legend:
A549 [1] = experiment: Cytotoxicity against human A549 cells assessed as reduction in cell viability incubated for 48 hrs by Alamar Blue assay; format: functional, cell-based; details: A549, 48 h
HCT-116 [2] = experiment: Anticancer activity against human HCT-116 cells; format: functional, cell-based
HeLa [3] = experiment: Cytotoxicity against human HeLa cells assessed as reduction in cell viability by MTT assay; format: functional, cell-based
Ishikawa = experiment: Antiproliferative activity against human Ishikawa cells assessed as reduction in cell viability by MTS assay; format: functional, cell-based
HepG2 [4] = experiment: Anticancer activity against human HepG2 cells assessed as reduction in cell viability; format: functional, cell-based
[5] = Oral bioavailability in rat at 10 mg/kg; format: ADME, organism-based; details: in vivo
HCT-116 [6] = experiment: Antiproliferative activity against human HCT-116 cells assessed as reduction in cell viability incubated for 72 hrs by MTT assay; format: functional, cell-based; details: HCT-116, 72 h
HLE = experiment: Antiproliferative activity against human HLE cells; format: functional, cell-based
HepG2 [7] = experiment: Anticancer activity against human HepG2 cells assessed as cell growth reduction incubated for 24 hrs by MTT assay; format: functional, cell-based; details: HepG2, 24 h
143B [8] = experiment: Antiproliferative activity against human 143B cells assessed as inhibition of cell growth measured after 48 hrs by MTT assay; format: functional, cell-based
HL-60 [9] = experiment: Antiproliferative activity against human HL-60 cells assessed as reduction in cell viability incubated for 72 hrs by MTT assay; format: functional, cell-based; details: HL-60, 72 h
LNCaP [10] = experiment: Cytotoxicity against human LNCaP cells assessed as reduction in cell growth incubated for 24 hrs by MTT assay; format: functional, cell-based
LLC-MK2 = experiment: Antiproliferative activity against Rhesus monkey LLC-MK2 cells assessed as reduction in cell viability incubated for 48 hrs by MTT assay; format: functional, cell-based; details: Macaca mulatta, LLC-MK2, 48 h
SNU-449 = experiment: Antiproliferative activity against human SNU-449 cells; format: functional, cell-based
LNCaP [11] = experiment: Cytotoxicity against human LNCaP cells assessed as reduction in cell growth incubated for 72 hrs by MTT assay; format: functional, cell-based
[12] = Half life in rat at 100 mg/kg, iv; format: ADME, organism-based; details: in vivo
HeLa [13] = experiment: Antiproliferative activity against human HeLa cells assessed as reduction in cell viability incubated for 48 hrs by MTT assay; format: functional, cell-based
[14] = Half life in Beagle dog at 30 mg/kg, iv measured for 8 to 12 hrs by LC-MS/MS analysis; format: ADME, organism-based, Canis lupus familiaris; details: in vivo, time 8-12 hrs
MIA PaCa-2 = experiment: Antiproliferative activity against human MIA PaCa-2 cells assessed as reduction of cell viability incubated for 72 hrs by CCK-8 assay; format: functional, cell-based; details: MIA PaCa-2, 72 h
A549 [15] = experiment: Antiproliferative activity against human A549 cells assessed as reduction in cell viability incubated for 72 hrs by MTT assay; format: functional, cell-based; details: A549, 72 h
[16] = Antiproliferative activity against human MG-63.3 cells assessed as reduction in cell viability measured for 72 hrs by MTT assay; format: functional, cell-based; details: MG-63.3, 72 h
HepG2 [17] = experiment: Antiproliferative activity against human HepG2 cells assessed as reduction in cell growth; format: functional, cell-based
SK-MEL3 = experiment: Antiproliferative activity against human SK-MEL3 cells harboring BRAF V600E mutant assessed as reduction in cell viability by cell-titer Glo assay; format: functional, cell-based
143B [18] = experiment: Antiproliferative activity against human 143B cells assessed as inhibition of cell growth measured after 24 hrs by MTT assay; format: functional, cell-based
HepG2 [19] = experiment: Antiproliferative activity against human HepG2 cells; format: functional, cell-based
[20] = Half life in Beagle dog at 15 mg/kg, iv measured for 8 to 12 hrs by LC-MS/MS analysis; format: ADME, organism-based, Canis lupus familiaris; details: in vivo, time 8-12 hrs
HL-60 [21] = experiment: Cytotoxicity against human HL-60 cells assessed as reduction in cell viability incubated for 48 hrs by MTT assay; format: functional, cell-based; details: HL-60, 48 h
Huh-7 = experiment: Antiproliferative activity against human Huh-7 cells; format: functional, cell-based
MCF7 [22] = experiment: Antiproliferative activity against human MCF7 cells assessed as reduction in cell viability incubated for 72 hrs by MTT assay; format: functional, cell-based; details: MCF7, 72 h
HuH-1 = experiment: Antiproliferative activity against human HuH-1 cells; format: functional, cell-based
HepG2 [23] = experiment: Anticancer activity against human HepG2 cells assessed as cell growth reduction incubated for 48 hrs by MTT assay; format: functional, cell-based; details: HepG2, 48 h
A-375 = experiment: Antiproliferative activity against human A-375 cells assessed as reduction in cell viability incubated for 72 hrs by MTT assay; format: functional, cell-based; details: A-375, 72 h
SMMC-7721 = experiment: Antiproliferative activity against human SMMC-7721 cells assessed as reduction in cell viability incubated for 24 hrs by CCK-8 assay; format: functional, cell-based; details: SMMC-7721, 24 h
MDA-MB-468 = experiment: Antiproliferative activity against human MDA-MB-468 cells assessed as reduction in cell viability incubated for 72 hrs by MTT assay; format: functional, cell-based; details: MDA-MB-468, 72 h
[24] = Half life in rat at 25 mg/kg, iv; format: ADME, organism-based; details: in vivo
EJM = experiment: Antitumor activity against human EJM cells assessed as reduction in cell viability incubated for 24 hrs by CCK-8 assay; format: functional, cell-based
[25] = Antiproliferative activity against human MG-63.3 cells assessed as reduction in cell viability measured for 24 hrs by MTT assay; format: functional, cell-based; details: MG-63.3, 24 h
[26] = Half life in rat at 50 mg/kg, iv; format: ADME, organism-based; details: in vivo
NCI-H1975 = experiment: Antiproliferative activity against human NCI-H1975 cells assessed as reduction in cell viability incubated for 48 hrs by MTT assay; format: functional, cell-based; details: NCI-H1975, 48 h
HepG2 [27] = experiment: Antiproliferative activity against human HepG2 cells assessed as inhibition of cell growth relative to control; format: functional; design: scale not given: the % may be the effect or the level left
[28] = Half life in Beagle dog at 7.5 mg/kg, iv measured for 8 to 12 hrs by LC-MS/MS analysis; format: ADME, organism-based, Canis lupus familiaris; details: in vivo, time 8-12 hrs
[29] = Antiproliferative activity against human MG-63.3 cells assessed as reduction in cell viability measured for 48 hrs by MTT assay; format: functional, cell-based; details: MG-63.3, 48 h
[30] = Antiproliferative activity against human SNU-739 cells; format: functional, cell-based
PC-3 = experiment: Antiproliferative activity against human PC-3 cells assessed as reduction of cell viability incubated for 24 to 72 hrs by CCK-8 assay; format: functional, cell-based
HCC 2998 = experiment: Antiproliferative activity against human HCC 2998 cells assessed as reduction in cell viability incubated for 72 hrs by MTT assay; format: functional, cell-based; details: HCC 2998, 72 h
Bel-7402 = experiment: Antiproliferative activity against human Bel-7402 cells incubated for 72 hrs by MTT assay; format: functional, cell-based; details: Bel-7402, 72 h
LNCaP [31] = experiment: Cytotoxicity against human LNCaP cells assessed as reduction in cell growth incubated for 48 hrs by MTT assay; format: functional, cell-based
HeLa [32] = experiment: Antiproliferative activity against human HeLa cells assessed as reduction in cell viability by MTT assay; format: functional, cell-based
[33] = Elimination half life in rat at 2 mg/kg, iv; format: ADME, organism-based; details: in vivo, read-out: beta t1/2 (converted)
[34] = Antiproliferative activity against human EFM-192A cells; format: functional, cell-based
PLC-PRF-5 = experiment: Antiproliferative activity against human PLC-PRF-5 cells; format: functional, cell-based
A549 [35] = experiment: Antiproliferative activity against human A549 cells assessed as reduction in cell viability incubated for 48 hrs by MTT assay; format: functional, cell-based; details: A549, 48 h
HepG2 [36] = experiment: Anticancer activity against human HepG2 cells assessed as reduction in cell viability measured for 24 hrs by MTT assay; format: functional, cell-based; details: HepG2, 24 h
T-24 = experiment: Antiproliferative activity against human T24 cells assessed as reduction in cell viability incubated for 48 hrs by MTT assay; format: functional, cell-based; details: T-24, 48 h
[37] = Antiproliferative activity against human HEC-251 cells assessed as reduction in cell viability; format: functional, cell-based
MDA-MB-231 = experiment: Antiproliferative activity against human MDA-MB-231 cells assessed as reduction in cell viability incubated for 24 hrs by MTT assay; format: functional, cell-based; details: MDA-MB-231, 24 h
143B [38] = experiment: Antiproliferative activity against human 143B cells assessed as inhibition of cell growth measured after 72 hrs by MTT assay; format: functional, cell-based
HeLa [39] = experiment: Antiproliferative activity against human HeLa cells assessed as inhibition of cell growth incubated for 72 hrs by CCK-8 assay relative to control; format: functional; design: scale not given: the % may be the effect or the level left
HepG2 [40] = experiment: Antiproliferative activity against human HepG2 cells assessed as inhibition of cell growth incubated for 72 hrs by CCK-8 assay relative to control; format: functional; design: scale not given: the % may be the effect or the level left
HCT-116 [41] = experiment: Antiproliferative activity against human HCT-116 cells assessed as inhibition of cell growth incubated for 72 hrs by CCK-8 assay relative to control; format: functional; design: scale not given: the % may be the effect or the level left
MCF7 [42] = experiment: Cytotoxicity against human MCF7 cells assessed as reduction in cell viability incubated for 72 hrs by MTT assay; format: functional, cell-based; details: MCF7, 72 h

Compound: Oc1ccc(CCc2cc(O)c(O)c(O)c2)cc1O
- pIC50 (A549 [1]): 4.38
- pIC50 (HCT-116 [2]): 4.38

Compound: CCOc1ccc(CCc2cc(OC)c(OC)c(OC)c2)cc1OP(=O)(O)O
- pIC50 (HeLa [3]): 6.24

Compound: COc1ccc(CCc2cc(OC)c(OC)c(OC)c2)cc1O
- pIC50 (Ishikawa): 7.39
- pIC50 (HepG2 [4]): 7.14
- bioavailability [5]: 8.7%
- pIC50 (HCT-116 [6]): 7.22
- pIC50 (HLE): 7.54
- pIC50 (HepG2 [7]): 6.89
- pIC50 (143B [8]): 7.39
- pIC50 (HL-60 [9]): 7.42
- pIC50 (LNCaP [10]): 7.47
- pIC50 (LLC-MK2): 8.64
- pIC50 (SNU-449): 6.63
- pIC50 (LNCaP [11]): 7.58
- half-life [12]: 3.89 h
- pIC50 (HeLa [13]): 5.08
- half-life [14]: 1.6 h
- pIC50 (MIA PaCa-2): 7.30
- pIC50 (A549 [15]): 7.15
- pIC50 [16]: 7.76
- pIC50 (HepG2 [17]): 6.76
- pIC50 (SK-MEL3): 7.92
- pIC50 (143B [18]): 7.24
- pIC50 (HepG2 [19]): 6.23
- half-life [20]: 1.66 h
- pIC50 (HL-60 [21]): 7.40
- pIC50 (Huh-7): 7.35
- pIC50 (MCF7 [22]): 7.22
- pIC50 (HuH-1): 7.59
- pIC50 (HepG2 [23]): 6.92
- pIC50 (A-375): 7.69
- pIC50 (SMMC-7721): 7.09
- pIC50 (MDA-MB-468): 7.40
- half-life [24]: 3.66 h
- pIC50 (EJM): 7.19
- pIC50 [25]: 7.05
- half-life [26]: 3.75 h
- pIC50 (NCI-H1975): 9.30
- Activity (HepG2 [27]): 82.81%
- half-life [28]: 1.41 h
- pIC50 [29]: 7.35
- pIC50 [30]: 7.75
- pIC50 (PC-3): 7.59
- pIC50 (HCC 2998): 7.15
- pIC50 (Bel-7402): 7.67
- pIC50 (LNCaP [31]): 7.58
- pIC50 (HeLa [32]): 6.66
- half-life [33]: 1.5 h
- pIC50 [34]: 7.10
- pIC50 (PLC-PRF-5): 7.26
- pIC50 (A549 [35]): 9.22
- pIC50 (HepG2 [36]): 7.36
- pIC50 (T-24): 7.34
- pIC50 [37]: 7.38
- pIC50 (MDA-MB-231): 7.15
- pIC50 (143B [38]): 7.57

Compound: COc1ccc(/C=C\c2cc(OC)c(OC)c(OC)c2)cc1OP(=O)(O)O [FOSBRETABULIN]
- Activity (HeLa [39]): 84.7%
- Activity (HepG2 [40]): 88.6%
- Activity (HCT-116 [41]): 86.1%

Compound: COc1cc(CCc2ccc(OC(F)F)c(N)c2)cc(OC)c1OC
- pIC50 (MCF7 [42]): 6.89
